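Dose response: 5 concentrations. Exposure: 48 h. Format: 96-well plates. Endpoint: linear interpolation; highest concentration if not reached. GI50 marks 50% less growth. TGI marks complete inhibition of growth.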
Key:
Assay in all cases: inhibition of tumour cell growth, NCI panel, 48 h; in the data active = GI50 below about 0.43 µM; inactive = the rest
[1] = tested on: HCT-15 colon
[2] = tested on: SNB-19 CNS
[3] = tested on: RXF 393 renal
[4] = tested on: SW-620 colon
[5] = tested on: NCI-H460 lung
[6] = tested on: M19-MEL melanoma
[7] = tested on: LXFL 529 NSCLC
[8] = tested on: UACC-257 melanoma
[9] = tested on: DMS 273 small cell lung
[10] = tested on: MDA-MB-231 breast

CC1(C)OC(=O)C(=C2CC(c3ccccc3)c3ccccc32)C(=O)O1 (stereo unspecified)
> 100 µM: TGI [1] | TGI [2] | TGI [3] | TGI [4] | TGI [5] | TGI [6] | TGI [7] | TGI [8]

CN(C)/C(N)=N/C(N)=S
> 100 µM: TGI [1] | TGI [9] | TGI [2] | TGI [3] | TGI [4] | TGI [5] | TGI [6] | TGI [7] | TGI [8]

Cc1ccc(C2=C(c3ccccc3)C(O)(c3ccc(C)cc3)C(c3ccccc3)=C2c2ccc(C)cc2)cc1
> 100 µM: TGI [1] | TGI [9] | TGI [2] | TGI [4] | TGI [5] | TGI [6] | TGI [7] | TGI [8]

COC(=O)NN1C(C)=C(C(=O)OC)C2(CCOC2=O)C1(C)O (stereo unspecified)
> 100 µM: TGI [1] | TGI [9] | TGI [2] | TGI [4] | TGI [5] | TGI [7] | TGI [8]

COc1cc(-c2cc(CCC(=O)Nc3ccccc3[N+](=O)[O-])n(-c3ccc([N+](=O)[O-])cc3[N+](=O)[O-])n2)ccc1O
inactive: GI50 [1] > 10 µM | GI50 [2] > 100 µM | GI50 [3] > 100 µM | GI50 [4] > 100 µM | GI50 [5] > 100 µM | GI50 [6] > 100 µM | GI50 [7] > 10 µM
> 10 µM: TGI [9] | TGI [8]
> 100 µM: TGI [1] | TGI [2] | TGI [3] | TGI [4] | TGI [5] | TGI [6] | TGI [7]

COc1ccc(/C(C)=N/NC(N)=S)c(OC)c1
> 100 µM: TGI [1] | TGI [2] | TGI [3] | TGI [4] | TGI [5] | TGI [6] | TGI [7] | TGI [8]

COc1ccc(C(=O)O)c(Cc2ccc3ccccc3c2)c1
> 100 µM: TGI [9] | TGI [2] | TGI [3] | TGI [4] | TGI [5] | TGI [6] | TGI [7] | TGI [8]

CC1=C(c2cc(C(=O)Nc3nccs3)nc(NC#N)n2)Sc2ccccc2N1
> 100 µM: TGI [1] | TGI [9] | TGI [2] | TGI [4] | TGI [5] | TGI [6] | TGI [7] | TGI [8]

CN(C)CCC1(C2=CCCC2)CC/C(=C\c2ccccc2)C1=O (stereo unspecified)
28.3 µM: TGI [2]
31.3 µM: TGI [5]
32.2 µM: TGI [4]
26.6 µM: TGI [1] | TGI [3]
29 µM: TGI [9]
29.6 µM: TGI [7]
28.5 µM: TGI [6] | TGI [8]

CC(Oc1ccc2cc(C(=O)c3ccccc3)c(=O)oc2c1)C(=O)O (stereo unspecified)
> 100 µM: TGI [2] | TGI [3] | TGI [4] | TGI [5] | TGI [6] | TGI [7] | TGI [8]

CCC(/C(=N\Nc1c(Cl)cc(Cl)cc1Cl)c1ccccc1)n1ccnc1C (stereo unspecified)
35.7 µM: TGI [4]
29.4 µM: TGI [5]
28.3 µM: TGI [8]
24.4 µM: TGI [1]
28.5 µM: TGI [2]
19.7 µM: TGI [9]
29.7 µM: TGI [6]
25.8 µM: TGI [7]

O=C([O-])c1ccccc1Nc1ccccc1[O-].[Ni+3].[OH3+].[OH3+].[OH3+]
inactive: GI50 [1] > 100 µM | GI50 [2] > 100 µM | GI50 [3] > 100 µM | GI50 [4] > 100 µM | GI50 [5] > 100 µM | GI50 [6] > 100 µM | GI50 [7] > 100 µM | GI50 [8] > 100 µM
> 100 µM: TGI [1] | TGI [2] | TGI [3] | TGI [4] | TGI [5] | TGI [6] | TGI [7] | TGI [8]

CC(C)CC(=O)NS(=O)(=O)c1ccccc1
> 100 µM: TGI [1] | TGI [2] | TGI [3] | TGI [4] | TGI [5] | TGI [6] | TGI [7] | TGI [8]

Cc1cccc(NC(=O)CC#N)c1Cl
> 100 µM: TGI [1] | TGI [9] | TGI [2] | TGI [4] | TGI [6] | TGI [7] | TGI [8]

COc1ccc(C#CCC(OC2OC(CO)C(O)C(O)C2O)C(O)c2ccc(OC)c(OC)c2)cc1OC (stereo unspecified)
> 100 µM: TGI [1] | TGI [9] | TGI [2] | TGI [3] | TGI [4] | TGI [5] | TGI [7] | TGI [8]

CCSc1nc2n(c(=S)n1)CCN2C
25.5 µM: TGI [8]
56.9 µM: TGI [4]
40.6 µM: TGI [1]
29.5 µM: TGI [7]
37.8 µM: TGI [2]
33.6 µM: TGI [9]
29.4 µM: TGI [6]
23.7 µM: TGI [3]
39.7 µM: TGI [5]

CCC/C(=N\NC(=O)c1cc2ccccc2cc1O)C(CC)C(=O)CCC(=O)N(Cc1ccccc1)Cc1ccccc1 (stereo unspecified)
> 100 µM: TGI [1] | TGI [2] | TGI [3] | TGI [4] | TGI [5] | TGI [7] | TGI [8]
52.8 µM: TGI [9]
48.6 µM: TGI [6]

CCN(CC)CCOc1ccc(C(=C2CCCCC2)c2ccc(OCCN(CC)CC)cc2)cc1
2.93 µM: TGI [9]
4.03 µM: TGI [2]
3.08 µM: TGI [6]
3.06 µM: TGI [7]
3.32 µM: TGI [8]
2.94 µM: TGI [5]
3.14 µM: TGI [3]
2.5 µM: TGI [4]
2.91 µM: TGI [1]

CC(=O)NC(CCCCNC(=O)N(C)N=O)C(=O)NCc1ccccc1 (stereo unspecified)
> 100 µM: TGI [1] | TGI [9] | TGI [2] | TGI [3] | TGI [4] | TGI [5] | TGI [6] | TGI [7] | TGI [8]

O=C(O)C1OC(Oc2cc(O)c3c(=O)cc(-c4ccc(O)cc4)oc3c2)C(O)C(O)C1O (stereo unspecified)
> 100 µM: TGI [9] | TGI [2] | TGI [4] | TGI [5] | TGI [6] | TGI [7] | TGI [8]

O=C(Nc1ccc(Br)cc1F)c1cc(Br)ccc1O
27.9 µM: TGI [2]
5.34 µM: TGI [8]
7.42 µM: TGI [4]
7.2 µM: TGI [5]
inactive: GI50 [1] 0.731 µM | GI50 [10] 1.09 µM | GI50 [2] 0.502 µM | GI50 [3] 0.661 µM | GI50 [4] 1.14 µM | GI50 [5] 0.5 µM | GI50 [8] 0.829 µM
7.32 µM: TGI [1]
3.33 µM: TGI [3]
4.9 µM: TGI [10]

O=C(CN1CCN(c2ccc(Cl)cc2)CC1)N1CCN(c2nnc(-c3ccccc3)c(-c3ccccc3)n2)CC1
inactive: GI50 [1] 5.12 µM | GI50 [10] > 100 µM | GI50 [2] > 100 µM | GI50 [3] 15 µM | GI50 [4] 38.9 µM | GI50 [5] 4.97 µM | GI50 [8] 26.6 µM
> 100 µM: TGI [1] | TGI [10] | TGI [2] | TGI [3] | TGI [4] | TGI [5] | TGI [8]
